Source: publication PMC6662706, “Short amylin receptor antagonist peptides improve memory deficits in Alzheimer’s disease mouse model” (Scientific Reports, 2019)
No end group written: not given here.

Experiments:
[1] = Ex vivo NIR fluorescence brain imaging after ip injection (brain penetration); format: in vivo, mouse; conditions: wild-type mice, 0, 0.6, 2, 10, 20 mg/kg single ip dose, 2 h, n = 3 per dose
From the text: Blood brain barrier (BBB) penetration can limit the potential of long sequence peptides as therapeutic agents in central nervous system (CNS). Previously, we have reported that a cyclized form of AC253 peptide and to a lesser degree its linear form can both penetrate the BBB at therapeutically relevant levels, and are localized to the hippocampus and cortex, regions relevant to memory and learning processes. Therefore, we examined the ability of Cy5.5 labeled peptide fragments (R5, and R14) to penetrate BBB in wild-type mice using NIR fluorescence ex vivo brain imaging. Brain fluorescence resulting from either R5 or R14 was assessed against full length AC253 2 h after a single intraperitoneal (ip) injection of peptides. […] Fluorescence signals were distributed throughout the cortex, but particularly strong within the hippocampal regions, where a very high density of amylin receptor expression has been reported. […]
In vivo brain penetration and pharmacokinetics of the peptides were determined in 6-month-old male or female wild-type (C57BL/6 background) and heterozygous CTR mice (het-CTR). […]
For ex vivo imaging experiments and peptide brain uptake, we used age matched 6-month-old wild-type littermate (C57BL/6 background) mice. […] Region of interest was drawn around the brain region and analyzed using the Kodak ID 3.6 software and the mean fluorescence intensity was recorded. […]

hippocampal LTP (CA1) = assay: Hippocampal LTP in slices from 8 month old TgCRND8 mice; parameters: species or system mouse; conditions: n = 6 recordings
Method: We examined whether the peptide fragments were capable of influencing Aβ- or hAmylin-induced reduction of hippocampal LTP in mice. Exposure of hippocampal slices from wild-type mice to hAmylin (50 nM) or Aβ (50 nM) depressed LTP induced by a weak tetanization protocol at the CA1 region as previously reported[20],[30]. To determine whether peptides affected hAmylin or Aβ- induced depression of LTP, we applied 250 nM R5 or R14 continuously for 5 min prior to exposure of the hippocampal slices to 50 nM hAmylin or Aβ and the subsequent LTP induction. […] We therefore sought to determine whether peptide fragments were also capable of improving LTP levels in the same TgCRND8 AD mouse model. […] Importantly, doses of the short peptide fragments used in these experiments were equimolar to those used for AC253 and pramlintide in our previous studies[20],[30].
For electrophysiology experiment, hippocampal slices (400-μm thick) were prepared using a vibratome from wild type and TgCRND8 mice (8 month of age, male or female). […]
Brains were quickly removed from mice following decapitation, placed in a cold artificial cerebral spinal fluid (aCSF) on a vibratome chamber, and transverse sections cut through the hippocampus. […] Before 3-TBS or drug application, the responses were monitored for at least 10 min to ensure a stable baseline of fEPSP. […]

HEK-WT cells = assay: Flow cytometry cell binding and uptake of Cy5.5 labeled peptides, HEK-WT cells; format: cell-based, human; conditions: Cy5.5 labeled peptides 5 µM, 1 h, 37 °C
Method: Next, we labeled R5, R14 peptides with Cy5.5 to examine their in vitro binding efficacy and specificity compared with AC253 in HEK-AMY3 cells using flow cytometry and fluorescence microscopy (Fig. 1A,C).
For flow cytometry studies, HEK-AMY3 cells were used to determine cell binding and uptake and binding of Cy5.5 labeled AC253, and R5, R14, R11 fragments. Cell were plated at a density of 1.5 × 10^5 cells/well and cultured overnight in 12-well plates at 37 °C. Peptides (5 µM) were added and incubated for 1 h at 37 °C in serum free media. The culture media was then discarded, and cell monolayers were washed with PBS containing 2 mM EDTA and 0.5% BSA adjusted to pH 7.4 at 37°C, then cells were washed again with cold buffer and incubated with 0.25% trypsin to remove cell surface–associated fluorophores. Cells were then dispersed in FACS solution (10% FBS in PBS), and analyzed using a FACSCanto II flow cytometer (BD Biosciences, USA) selecting a detection window between 720 and 840 nm, and fluorescence histograms and dot plots were generated using FLOWJO software (Tree Star, Inc, USA). At least 10,000 gated events per sample were analyzed to develop the histogram. HEK-WT cells was used as negative control.

Substance: SQELHRLQTYPR-NH2 [R5]
- accumulation in the brain at increasing dose [1]: dose-dependent
- effect on chronically depressed LTP in TgCRND8 slices (hippocampal LTP (CA1)): significant increase in LTP

Substance: LGRLSQELHRLQTYPRTNTGSNTY-NH2 (C-terminus assumed) [AC253, reference compound]
- binding and uptake in HEK-WT cells compared to HEK-AMY3 cells (HEK-WT cells): reduced binding and uptake
